Experimental data reported in ChEMBL document CHEMBL3638669, “Substituted 2-(chroman-6-yloxy)-thiazoles and their use as pharmaceuticals” (2014).

Columns and labels:
[1] = biological target: T1, Sodium/calcium exchanger 1 (Homo sapiens, UniProt P32418); assay: Forward Mode Assay: The assay is based on the monitoring of intracellular Ca2+concentrations using the PBX Calcium Assay Kit from BD (Becton, Dickinson and Company) with calcium indicator dye 51-9000177BKa (BD, 640177), CHO cells expressing NCX1 were loaded with the dye, and after a preincubation period with the test compound, lonomycin (Calbiochem, 407950) was added. Ionomycin is an ionophor for Ca2+ions mediating an increase of intracellular Ca2+ions. Consequently, intracellular Ca2+ions are exchanged against extracellular Na+ions (Ca2+efflux, forward mode). The decrease of intracellular Ca2+ions was detected by measuring the fluorescence of the calcium indicator dye at a wavelength of 520 nm by a FLIPR device.Briefly, similarly as for the reverse mode, for the forward mode transport assay 18000 cells per well were seeded into a 96 well microplate (Corning COSTAR 3904) and incubated overnight in culture medium (cf. above). A total volume of 100 ul medium per well was used.; type: cell-based
[2] = biological target: T1, Sodium/calcium exchanger 1; assay: Reverse Mode Assay: The assay is based on the monitoring of intracellular Ca2+concentrations using the calcium-sensitive dye Fluo-4. CHO cells expressing NCX1 were loaded with the dye by means of the acetoxymethyl ester Fluo-4 AM (Invitrogen, F14202), which is cleaved intracellularly by esterase activity to yield the charged species of free Fluo-4. After an preincubation period with the test compound, Gramicidine (Sigma, G5002) was added. Gramicidine is an ionophor for Na+ions mediating an increase of intracellular Na+ions. Consequently, intracellular Na+ions are exchanged against extracellular Ca2+ions (Ca2+influx, reverse mode). The intracellular elevation of Ca2+ ions was detected by measuring the fluorescence of Fluo-4 at a wavelength of 520 nm by a FLIPR device.Briefly, for the reverse mode transport assay 18000 cells per well were seeded into a 96 well microplate (Corning COSTAR 3904) and incubated overnight in culture medium (1x Nut Mix F12 (Ham) (Gibco, 21765-029); 10% (v/v) fetal calf serum.; type: cell-based

T1 sequence (P32418 36-973 limits assumed): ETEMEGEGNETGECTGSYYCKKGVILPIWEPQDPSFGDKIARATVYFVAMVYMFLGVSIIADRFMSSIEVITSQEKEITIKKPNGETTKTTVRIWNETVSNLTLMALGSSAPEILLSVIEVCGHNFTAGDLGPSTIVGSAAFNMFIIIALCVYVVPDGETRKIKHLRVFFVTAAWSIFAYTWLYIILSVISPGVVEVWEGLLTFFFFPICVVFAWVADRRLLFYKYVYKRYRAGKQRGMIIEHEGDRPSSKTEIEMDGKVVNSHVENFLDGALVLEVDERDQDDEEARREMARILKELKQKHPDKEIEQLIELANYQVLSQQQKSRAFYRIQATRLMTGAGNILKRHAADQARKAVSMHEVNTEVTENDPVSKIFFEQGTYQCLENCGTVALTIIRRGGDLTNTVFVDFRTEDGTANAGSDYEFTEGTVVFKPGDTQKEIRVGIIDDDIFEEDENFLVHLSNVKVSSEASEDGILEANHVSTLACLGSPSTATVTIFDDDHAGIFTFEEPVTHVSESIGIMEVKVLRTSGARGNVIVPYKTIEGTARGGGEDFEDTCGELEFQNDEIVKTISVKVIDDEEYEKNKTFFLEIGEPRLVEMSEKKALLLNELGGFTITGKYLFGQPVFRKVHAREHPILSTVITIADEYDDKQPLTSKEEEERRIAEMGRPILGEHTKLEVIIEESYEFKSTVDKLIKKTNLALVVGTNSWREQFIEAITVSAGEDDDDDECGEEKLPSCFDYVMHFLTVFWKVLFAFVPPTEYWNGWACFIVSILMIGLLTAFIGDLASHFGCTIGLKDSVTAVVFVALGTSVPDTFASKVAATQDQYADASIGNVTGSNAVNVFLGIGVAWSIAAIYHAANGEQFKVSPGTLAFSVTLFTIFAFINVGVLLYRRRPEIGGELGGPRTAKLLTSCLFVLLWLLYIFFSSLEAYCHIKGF

| Compound | IC50 [1] | IC50 [2] |
| --- | --- | --- |
| Cc1ccccc1C1CCc2cc(Oc3ncc(C(=O)NCc4ccnc(Cl)c4)s3)ccc2O1 (configuration not stated) | 1900 nM | – |
| NCCCNC(=O)c1cnc(Oc2ccc3c(c2)CC[C@@H](c2ccccc2)O3)s1 | – | 300 nM |
